This note sets out measurements from patent US9617256B2 (priority 2007, dated 2017).

In brackets after ≈: the same amount, converted by molar mass. Like-named read-outs stand apart in the source and are kept apart here.

The test system of one assay is AECO001 (ATCC25922). Nature of the assay: MIC broth microdilution, AECO001. Type of assay: cell-based, E. coli. Particulars: Escherichia coli. The protocol:
(§1) Bacterial isolates were cultivated from −70° C. frozen stocks by overnight passages at 35° C. in ambient air on Mueller-Hinton agar (Beckton Dickinson, Franklin Lakes, N.J.). Clinical isolates tested were obtained from various geographically diverse hospitals in the US and abroad (Focus Diagnostics, Herndon, Va. and JMI, North Liberty, Iowa). Quality control strains were from the American Type Culture Collection (ATCC; Rockville, Md.). Additional primary panel strains were generated using standard molecular biology techniques.
(§2) Minimum Inhibitory Concentrations (MICs) were determined by the broth microdilution method in accordance with the Clinical and Laboratory Standards Institute (CLSI) guidelines. In brief, organism suspensions were adjusted to a 0.5 McFarland standard to yield a final inoculum between 3×10^5 and 7×10^5 colony-forming units (CFU)/mL. Drug dilutions and inocula were made in sterile, cation adjusted Mueller-Hinton Broth (Beckton Dickinson). An inoculum volume of 100 μL was added to wells containing 100 μL of broth with 2-fold serial dilutions of drug. All inoculated microdilution trays were incubated in ambient air at 35° C. for 18-24 hours. […] Performance of the assay was monitored by the use of laboratory quality-control strains and levofloxacin, a compound with a defined MIC spectrum, in accordance with CLSI guidelines.
(§3) *AECO001 is ATCC25922, AECO063 is ATCC25922 bearing an acrAB mutation, APAE001 is ATCC27853, APAE006 is a strain of P. aeruginosa in which all efflux pumps are inactivated, APAE006+PMBN indicates MICs with the indicated strain in the presence of 8 micrograms per milliliter of polymyxin B nonapeptide, AABA1060 is a clinical isolate of Acinetobacter baumannii, ASAU001 is a laboratory strain of S. aureus (ATCC29213).

The subject of assay [1] is AECO063 (ATCC25922 bearing an acrAB mutation). The assay can be described thus: microbe, parasite or virus in culture. Type of assay: cell-based, E. coli. Particulars: Escherichia coli, ATCC25922, read-out: MIC AECO063. The method, then: as §1, §2, §3
The next assay relates to APAE001 (ATCC27853). Nature of the assay: MIC broth microdilution, APAE001. Type of assay: cell-based, P. aeruginosa. Particulars: Pseudomonas aeruginosa, ATCC27853, read-out: MIC APAE001, APAE001 (ATCC27853). The protocol:
as §1, §2, §3

Assay [2] deals with APAE006 (strain of P. aeruginosa in which all efflux pumps are inactivated). The assay can be described thus: microbe, parasite or virus in culture. Type of assay: cell-based. To be noted: Pseudomonas aeruginosa, read-out: MIC APAE006, APAE006, all efflux pumps inactivated. The method, then:
as §1, §2, §3

Assay [3] deals with APAE006 in the presence of 8 micrograms per milliliter of polymyxin B nonapeptide. Type of assay: cell-based, P. aeruginosa. To be noted: APAE006 with 8 micrograms per milliliter polymyxin B nonapeptide. The protocol: as §1, §2, §3
In assay [4] the test system is AABA1060 (clinical isolate of Acinetobacter baumannii). The assay can be described thus: MIC broth microdilution, AABA1060. To be noted: Acinetobacter baumannii, read-out: MIC AABA1060. The format is cell-based. The protocol: as §1, §2, §3
The subject of assay [5] is ASAU001 (laboratory strain of S. aureus, ATCC29213). The assay can be described thus: MIC broth microdilution, ASAU001. Type of assay: cell-based. To be noted: Staphylococcus aureus, ATCC29213, read-out: MIC ASAU001. The protocol: as §1, §2, §3
Setting [6] is: ATCC25922, read-out: MIC AECO001.
Setting [7] is: ATCC25922, read-out: MIC AECO001 HSA AGP.

For the compound `CC(C)(O)[C@H](NC(=O)c1ccc(C#CC#Cc2ccc(N)cc2)cc1)C(=O)NO` [Example 82-17], the MIC (in the assay with AECO001 (ATCC25922) (setting [6]); in the assay with AECO001 (ATCC25922) (setting [7]); in assay [1]; in the assay with APAE001 (ATCC27853); in assay [2]; in assay [4]) was under 2 µg/mL in each case. The MIC in assay [5] lay within 2 to 16 µg/mL (≈ 5.11 to 40.9 µM). Besides, the “MIC APAE006 + PMBN” value in assay [3] is recorded as “A (MIC's of 2.0 μg/mL or less = A)”.
Regarding `C[C@@H](O)[C@H](NC(=O)c1ccc(C#CC#Cc2cccc(F)c2)cc1)C(=O)NO` [Example 82-18], the MIC was under 2 µg/mL with AECO001 (ATCC25922) (setting [6]); 2 to 16 µg/mL (≈ 5.26 to 42.1 µM) in the assay on AECO001 (ATCC25922) (setting [7]); under 2 µg/mL in assay [1]; 2 to 16 µg/mL (≈ 5.26 to 42.1 µM) in the assay with APAE001 (ATCC27853); under 2 µg/mL in assay [2]; 16 to 64 µg/mL (≈ 42.1 to 168 µM) in assay [4]. Moreover, the MIC in assay [5] lay within 16 to 64 µg/mL (≈ 42.1 to 168 µM). Moreover, the “MIC APAE006 + PMBN” value in assay [3] is listed as “A (MIC's of 2.0 μg/mL or less = A)”.
Take `CC(C)(O)[C@H](NC(=O)c1ccc(C#CC#Cc2ccc(F)cc2)cc1)C(=O)NO` [Example 82-19]: the MIC was under 2 µg/mL with AECO001 (ATCC25922) (setting [6]); 2 to 16 µg/mL (≈ 5.07 to 40.6 µM) in the assay on AECO001 (ATCC25922) (setting [7]); under 2 µg/mL in assay [1]; 2 to 16 µg/mL (≈ 5.07 to 40.6 µM) with APAE001 (ATCC27853); under 2 µg/mL in assay [2]; under 2 µg/mL in assay [4]. Moreover, the MIC in assay [5] lay in the range of 16 to 64 µg/mL (≈ 40.6 to 162 µM). The “MIC APAE006 + PMBN” value in assay [3] is recorded as “A (MIC's of 2.0 μg/mL or less = A)”.
`CCOCc1ccc(C#CC#Cc2ccc(C(=O)N[C@H](C(=O)NO)[C@@H](C)O)cc2)cc1` [Example 82-20]: the MIC with AECO001 (ATCC25922) (setting [6]) was under 2 µg/mL; in the assay on AECO001 (ATCC25922) (setting [7]) it was 2 to 16 µg/mL (≈ 4.76 to 38.1 µM); in assay [1] it was under 2 µg/mL; in the assay with APAE001 (ATCC27853), 2 to 16 µg/mL (≈ 4.76 to 38.1 µM); in assay [2], under 2 µg/mL; in assay [4] it was 2 to 16 µg/mL (≈ 4.76 to 38.1 µM). Moreover, the MIC in assay [5] was in the range of 16 to 64 µg/mL (≈ 38.1 to 152 µM). For the same compound, the “MIC APAE006 + PMBN” value in assay [3] is on record as “A (MIC's of 2.0 μg/mL or less = A)”.
As for `CCOCc1ccc(C#CC#Cc2ccc(C(=O)N[C@H](C(=O)NO)C(C)(C)O)cc2)cc1` [Example 82-21], the MIC with AECO001 (ATCC25922) (setting [6]) is under 2 µg/mL; in the assay with AECO001 (ATCC25922) (setting [7]), 2 to 16 µg/mL (≈ 4.6 to 36.8 µM); in assay [1], under 2 µg/mL; in the assay with APAE001 (ATCC27853), 2 to 16 µg/mL (≈ 4.6 to 36.8 µM); in assay [2] it was under 2 µg/mL; in assay [4], under 2 µg/mL. Moreover, the MIC in assay [5] was in the range of 16 to 64 µg/mL (≈ 36.8 to 147 µM). Further, the “MIC APAE006 + PMBN” value in assay [3] is on record as “A (MIC's of 2.0 μg/mL or less = A)”.
With `CC(C)(N)[C@H](NC(=O)c1ccc(C#CC#Cc2ccccc2F)cc1)C(=O)NO` [Example 82-29], the MIC in the assay with AECO001 (ATCC25922) (setting [6]) is under 2 µg/mL; in the assay with AECO001 (ATCC25922) (setting [7]), under 2 µg/mL; with APAE001 (ATCC27853) it was under 2 µg/mL; in assay [2] it was under 2 µg/mL; in assay [4], under 2 µg/mL; in assay [5], 2 to 16 µg/mL (≈ 5.08 to 40.7 µM).
As to `CC(C)(O)[C@H](NC(=O)c1ccc(C#CC#Cc2cccs2)cc1)C(=O)NO` [Example 88-11], the MIC (with AECO001 (ATCC25922) (setting [6]); in the assay on AECO001 (ATCC25922) (setting [7]); in assay [1]; in the assay on APAE001 (ATCC27853); in assay [2]; in assay [4]) was under 2 µg/mL in each case. In assay [5], the MIC fell in the range of 16 to 64 µg/mL (≈ 41.8 to 167 µM).
For the compound `CC(C)CC#CC#Cc1ccc(C(=O)N[C@H](C(=O)NO)[C@@H](C)N)cc1` [Example 91-24], the MIC with AECO001 (ATCC25922) (setting [6]) is under 2 µg/mL; in the assay with AECO001 (ATCC25922) (setting [7]), 2 to 16 µg/mL (≈ 5.86 to 46.9 µM); in assay [1], under 2 µg/mL; in the assay with APAE001 (ATCC27853) it was under 2 µg/mL; in assay [2], under 2 µg/mL; in assay [4], 2 to 16 µg/mL (≈ 5.86 to 46.9 µM). Besides, in assay [5], the MIC was 2 to 16 µg/mL (≈ 5.86 to 46.9 µM).
On to `CC(C)(N)[C@H](NC(=O)c1ccc(C#CC#CCC2CC2)cc1)C(=O)NO` [Example 91-26], for which the MIC (in the assay on AECO001 (ATCC25922) (setting [6]); with AECO001 (ATCC25922) (setting [7]); in assay [1]; in the assay with APAE001 (ATCC27853); in assay [2]; in assay [4]) was under 2 µg/mL in each case. Moreover, in assay [5], the MIC was 16 to 64 µg/mL (≈ 45.3 to 181 µM).
As to `C[C@@H](N)[C@H](NC(=O)c1ccc(C#CC#CCC2CC2)cc1)C(=O)NO` [Example 91-27], the MIC in the assay with AECO001 (ATCC25922) (setting [6]) was under 2 µg/mL; with AECO001 (ATCC25922) (setting [7]), 2 to 16 µg/mL (≈ 5.89 to 47.1 µM); in assay [1], under 2 µg/mL; in the assay with APAE001 (ATCC27853) it was under 2 µg/mL; in assay [2], under 2 µg/mL; in assay [4], 2 to 16 µg/mL (≈ 5.89 to 47.1 µM). The MIC in assay [5] was 16 to 64 µg/mL (≈ 47.1 to 189 µM).
For `C[C@H](NCC(=O)N[C@H](C)[C@H](NC(=O)c1ccc(C#Cc2ccccc2)cc1)C(=O)NO)c1ccccc1` [Example 132-5], the MIC in the assay on AECO001 (ATCC25922) (setting [6]) was 16 to 64 µg/mL (≈ 32.1 to 128 µM); in the assay on AECO001 (ATCC25922) (setting [7]), 16 to 64 µg/mL (≈ 32.1 to 128 µM); in the assay with APAE001 (ATCC27853), 16 to 64 µg/mL (≈ 32.1 to 128 µM); in assay [2], under 2 µg/mL; in assay [4], 16 to 64 µg/mL (≈ 32.1 to 128 µM); in assay [5] it was 16 to 64 µg/mL (≈ 32.1 to 128 µM).
